Entries after “also recorded” stand apart in the source; their conditions may differ.
How the values were obtained:
[1] = target: T1, BRD4 (Homo sapiens, UniProt O60885); test: CURE-PRO-mediated BRD4 degradation, Western blot, HeLa cells; assay type: cell-based; parameters: endogenous in cells; host or cells: HeLa; conditions: 24 h, Western blot; for BRD4 degradation, co-treatment with CRBN ligand 8048: 1:1 with 8048, 1-10 μM each; for BRD4 degradation, co-treatment with CRBN ligand 8049: 1:1 with 8049, 1-10 μM each; for BRD4 degradation, BRD ligand alone: BRD monomer alone
Procedure: All cell lines were purchased from ATCC or DSMZ and grown at 37° C. with 5% CO2. Human HeLa cells were cultured in complete growth medium (Dulbecco's modified Eagle's medium (DMEM) supplemented with 10% FBS); MCF7 cells were cultured in complete growth medium (Dulbecco's modified Eagle's medium (DMEM) supplemented with 10% FBS and 0.01 mg/ml human recombinant insulin (Sigma Aldrich); Namalwa and MOLM-13 cells were cultured in complete growth medium (RPMI 1640 medium supplemented with 10% FBS); MV-4-11 were cultured in complete growth medium (Iscove's Modified Dulbecco's medium, supplemented with 10% FBS); HCT116 cells were cultured in complete growth medium (McCoy's 5a Medium supplemented with 10% FBS). For cellular degradation of BRD4 studies, cells were seeded in a 12-well plate at 70-80% confluency, allowed to attach overnight, and incubated with the indicated compounds for the indicated time. When indicated, a 15-minute pretreatment with 10 μM pomalidomide, 10 μM VHL298, 10 μM Nutlin3a, 1 μM MG-132 or 1 μM Carfilzomib was performed before the addition of CURE-PROs. For washout studies, after CURE-PRO treatment, media was aspirated and incubated with complete medium for the indicated time before lysis.
Anti-BRD4 (13440, 1:1,000 dilution for Western Blot and 1:25 dilution for ProteinSimple); Anti-BRD2 (5848 1:1,000 dilution for Western Blot and 1:25 dilution for ProteinSimple); β-Actin (3700, 1:2,000 dilution for Western Blot), β-Actin (4970, 1:50 dilution for ProteinSimple) anti-mouse IgG-HRP, and anti-rabbit IgG-HRP antibodies were purchased Cell Signaling Technology. Anti-GAPDH (600-401-A33, 1:100 dilution for ProteinSimple) was purchased from Rockland Immunochemicals, Inc. Anti-BRD3 (sc-81202, 1:200 dilution for Western Blot) was purchased from Santa Cruz Biotechnology.
HeLa, MCF7, or HCT116 cells (2.5-3×10^6) were treated for 24 hours with the indicated compounds solubilized in DMSO. The cells were washed in ice-cold PBS and were then lysed in RIPA lysis buffer (150 mM NaCl, 5 mM EDTA, 1% NP-40, 0.5% sodium deoxycholate, 0.1% SDS, 50 mM Tris, pH 8.0.) with Roche protease inhibitor complete cocktail and phosphatase inhibitors (10 mM sodium fluoride, 10 mM sodium pyrophosphate, 1 mM sodium orthovanadate and 20 mM β-glycerophosphate). The total protein concentrations were determined by Bradford Protein Assay and 10-20 μg of protein was loaded onto 4-15% Tris-Glycine gradient gels (Biorad). After standard gel electrophoresis, the separated proteins were transferred to PVDF membrane by wet transfer. The immunoblots were then blocked for 1 hour in 5% skim milk in TBST or 5% BSA in TBST, according to manufacturer's instructions, before an overnight incubation at 4° C. with indicated antibodies and membranes. Membranes were then incubated with the appropriate horseradish peroxidase-conjugated secondary antibodies (1:5,000 dilution) for 1 h at room temperature and the bands were visualized using the Clarity Max Western ECL Substrate (Biorad) and the ChemiDoc Imaging System (Biorad). Signal was detected with ECL Western Blotting Substrate (Pierce) and X-ray film processed with a Konica SRX-101 X-ray film processor or captured by Bio-Rad's Chemidoc Imaging system.
HeLa cells (2.5×106) were treated for 24 hours with the sample compounds solubilized in DMSO. Compounds were added at 1-10 μM each. Standardized protein samples were electrophoresed and imaged as described in the immunoblotting description above. FIGS. 6-18 depicts the CURE-PRO-mediated BRD4 degradation for BRD monomers (JQ1 derivatives comprising of catechol linkers), and CRBN ligands, 8048 and 8049 (pomalidomide derivatives comprising boronic acid linkers) combined in a 1:1 ratio.
HeLa cells (2.5×106) were treated for 24 hours with the compounds solubilized in DMSO. The compounds were added at 10 μM each. Standardized protein samples were electrophoresed and imaged as described in the immunoblotting section above. […]

[2] = target: T1, BRD4; test: Summary of BRD4 degradation by CURE-PRO pairs, estimated from Western Blot or WES (Proteinsimple); assay type: cell-based; parameters: endogenous in cells; conditions: for Degradation of BRD4 in combination with CRBN ligand [drawing 407]: first drawing (by text: 8048)
From the text: A black check mark indicates efficacy of 30% to 70% or higher protein degradation.

[3] = Table 4, aryl-boronic acid-containing CRBN ligand

Compound	BRD4 degradation, co-treatment with CRBN ligand 8048 [1]	BRD4 degradation, co-treatment with CRBN ligand 8049 [1]	BRD4 degradation, BRD ligand alone [1]	Degradation of BRD4 in combination with CRBN ligand [drawing 407] [2, 3]	other results
COc1ccc2c(c1)C(c1ccc(Cl)cc1)=N[C@@H](CC(=O)NCCOCCOCCNC(=O)c1ccc(B(O)O)cc1)c1nnc(C)n1-2 [BRD-E45]	–	–	–	–	BRD4 degradation, co-treatment with CRBN ligand 8066 ([1]; 1:1 with 8066, 10 μM each (BRD-E10: 10 and 100 μM)): causes degradation of BRD4; Degradation of BRD4 in combination with CRBN ligand [drawing 372] ([2]; Table 1, CRBN ligand, third drawing (8066)): ✓ (A black check mark indicates efficacy of 30% to 70% or higher protein degradation); Degradation of BRD4 in combination with VHL ligand [drawing 397] ([2]; Table 3, aromatic 1,2-diol-containing VHL ligand, second drawing (8305)): ✓ (A black check mark indicates efficacy of 30% to 70% or higher protein degradation)
COc1ccc2c(c1)C(c1ccc(Cl)cc1)=N[C@@H](CC(=O)Nc1ccc(B(O)O)cc1)c1nnc(C)n1-2 [BRD-E74, (4-(2-((4S)-6-(4-chlorophenyl)-8-methoxy-1-methyl-4H-benzo[f][1,2,4]triazolo[4,3-a][1,4]diazepin-4-yl)acetamido)phenyl)boronic acid]	–	–	–	–	BRD4 degradation, co-treatment with CRBN ligand 8046 ([1]; 1:1 with 8046, 10 μM each): causes degradation of BRD4; BRD4 degradation, co-treatment with CRBN ligand 8047 ([1]; 1:1 with 8047, 10 μM each): causes degradation of BRD4; Degradation of BRD4 in combination with CRBN ligand [drawing 370] ([2]; Table 1, aromatic 1,2-diol- or hindered cis-1,2-diol-containing CRBN ligand, first drawing (8046)): ✓ (A black check mark indicates efficacy of 30% to 70% or higher protein degradation)
COc1ccc2c(c1)C(c1ccc(Cl)cc1)=N[C@@H](CC(=O)NCCNC(=O)c1ccc(O)c(O)c1)c1nnc(C)n1-2 [BRD-N1]	causes degradation of BRD4; also recorded: Degradation is noted	no evidence of BRD4 degradation	no degradation of BRD4	✓ (A black check mark indicates efficacy of 30% to 70% or higher protein degradation)	–
COc1ccc2c(c1)C(c1ccc(Cl)cc1)=N[C@@H](CC(=O)NCCCCNC(=O)c1ccc(O)c(O)c1)c1nnc(C)n1-2 [BRD-N5]	causes degradation of BRD4; also recorded: Degradation is noted	no evidence of BRD4 degradation	no degradation of BRD4	✓ (A black check mark indicates efficacy of 30% to 70% or higher protein degradation)	–
COc1ccc2c(c1)C(c1ccc(Cl)cc1)=N[C@@H](CC(=O)NCCCCNC(=O)c1cccc(O)c1O)c1nnc(C)n1-2 [BRD-N6]	causes degradation of BRD4; also recorded: Degradation is noted	no evidence of BRD4 degradation	no degradation of BRD4	✓ (A black check mark indicates efficacy of 30% to 70% or higher protein degradation)	–
CCNC(=O)C[C@@H]1N=C(c2ccc(Cl)cc2)c2cc(OCCCCC(=O)Nc3ccc(O)c(O)c3)ccc2-n2c(C)nnc21 [BRD-N22, 5-(((4S)-6-(4-chlorophenyl)-4-(2-(ethylamino)-2-oxoethyl)-1-methyl-4H-benzo[f][1,2,4]triazolo[4,3-a][1,4]diazepin-8-yl)oxy)-N-(3,4-dihydroxyphenyl)pentanamide]	causes degradation of BRD4; also recorded: Degradation is noted	no evidence of BRD4 degradation	no degradation of BRD4	✓ (A black check mark indicates efficacy of 30% to 70% or higher protein degradation)	–
COc1ccc2c(c1)C(c1ccc(Cl)cc1)=N[C@@H](CC(=O)NCCNC(=O)Cc1ccc(O)c(O)c1)c1nnc(C)n1-2 [BRD-N30]	causes degradation of BRD4	–	no degradation of BRD4	✓ (A black check mark indicates efficacy of 30% to 70% or higher protein degradation)	–
CCNC(=O)C[C@@H]1N=C(c2ccc(Cl)cc2)c2cc(OCCOCCNC(=O)c3ccc(O)c(O)c3)ccc2-n2c(C)nnc21 [BRD-N38, N-(2-(2-(((4S)-6-(4-chlorophenyl)-4-(2-(ethylamino)-2-oxoethyl)-1-methyl-4H-benzo[f][1,2,4]triazolo[4,3-a][1,4]diazepin-8-yl)oxy)ethoxy)ethyl)-3,4-dihydroxybenzamide]	causes degradation of BRD4	–	no degradation of BRD4	✓ (A black check mark indicates efficacy of 30% to 70% or higher protein degradation)	–
COc1ccc2c(c1)C(c1ccc(Cl)cc1)=N[C@@H](CC(=O)NCCOCCOCCOCCNC(=O)c1ccc(O)c(O)c1)c1nnc(C)n1-2 [BRD-N44]	causes degradation of BRD4	–	no degradation of BRD4	✓ (A black check mark indicates efficacy of 30% to 70% or higher protein degradation)	–
CCNC(=O)C[C@@H]1N=C(c2ccc(Cl)cc2)c2cc(-c3ccc4cc(O)c(O)cc4c3)ccc2-n2c(C)nnc21 [BRD-N67]	causes degradation of BRD4	causes degradation of BRD4	no degradation of BRD4	✓ (A black check mark indicates efficacy of 30% to 70% or higher protein degradation)	Degradation of BRD4 in combination with CRBN ligand [drawing 408] ([2]; Table 4, aryl-boronic acid-containing CRBN ligand, second drawing (by text: 8049)): ✓ (A black check mark indicates efficacy of 30% to 70% or higher protein degradation)
COc1ccc2c(c1)C(c1ccc(Cl)cc1)=N[C@@H](CC(=O)NCCOCCOCCOCCOCCNC(=O)c1ccc(O)c(O)c1)c1nnc(C)n1-2 [BRD-N69]	causes degradation of BRD4; also recorded: Degradation is noted	no evidence of BRD4 degradation	no degradation of BRD4	✓ (A black check mark indicates efficacy of 30% to 70% or higher protein degradation)	–
CCNC(=O)C[C@@H]1N=C(c2ccc(Cl)cc2)c2cc(OCCOCCOCCOCCOCCOCCNC(=O)c3ccc(O)c(O)c3)ccc2-n2c(C)nnc21 [BRD-N70, N-(17-(((4S)-6-(4-chlorophenyl)-4-(2-(ethylamino)-2-oxoethyl)-1-methyl-4H-benzo[f][1,2,4]triazolo[4,3-a][1,4]diazepin-8-yl)oxy)-3,6,9,12,15-pentaoxaheptadecyl)-3,4-dihydroxybenzamide]	causes degradation of BRD4; also recorded: Degradation is noted	no evidence of BRD4 degradation	–	✓ (A black check mark indicates efficacy of 30% to 70% or higher protein degradation)	–

From patent US20230277553A1, “THERAPEUTIC COMPOSITION OF CURE-PRO COMPOUNDS FOR TARGETED DEGRADATION OF BET DOMAIN PROTEINS, AND METHODS OF MAKING AND USAGE” (CORNELL UNIVERSITY, priority 2020, published 2023)
